Test results as given in patent publication US9082985B2, “Arylsulfonic acid compound and use thereof as electron-acceptor material” (NISSAN CHEMICAL INDUSTRIES, LTD., priority 2008, dated 2015).

test: Solubility test: amount of cyclohexanol (CHA) added until the varnish became clouded; assay type: physicochemical; conditions: varnish of arylsulfonic acid compound with PTA (0.5 molar equivalents; 1.0 for NSO-2) in 1 g DMI, solid content 7.0 wt %; amount of CHA when the varnish became clouded
Protocol: The arylsulfonic acid compounds obtained in the above Examples 1 to 4 and Comparative Example 1 were subjected to a solubility test in solvent according to the following procedure.
The respective arylsulfonic acid compounds obtained in Examples 1 to 4 and 0.5 molar equivalents of PTA, relative to the compound, were dissolved in 1 g of 1,3-dimethyl-2-imidazolidinone (hereinafter abbreviated as DMI) so that the solid content was set at 7.0 wt %, thereby preparing varnishes.
Cyclohexanol (hereinafter abbreviated as CHA) was added to the resulting varnish to determine, as an index for solubility, an amount of CHA at the time when the varnish became clouded.
NSO-2 obtained in Comparative Example 1 and 1.0 molar equivalent of PTA, relative to NSO-2, were dissolved in 1 g of DMI so that the solid content was set at 7.0 wt %, thereby preparing a varnish.
CHA was added to the resulting varnish to determine, as an index for solubility, an amount of CHA at the time when the varnish became clouded.

Amount of dissolution in CHA [g] | Compound
8.0 | N#Cc1c(F)c(F)c(Oc2cc(S(=O)(=O)O)cc3cc(S(=O)(=O)O)ccc23)c(F)c1C#N [Example 3FNS-1, Dicyanoperfluorotoluenesulfonic acid compound]
>10 | N#Cc1c(F)c(F)c(Oc2cc(S(=O)(=O)O)cc3cc(S(=O)(=O)O)ccc23)c(F)c1F [Example 4FNS-2, Cyanoperfluorotoluenesulfonic acid compound]
>10 | O=S(=O)(O)c1ccc2c(Oc3c(F)c(F)c(C(F)(F)C(F)=C(F)F)c(F)c3F)cc(S(=O)(=O)O)cc2c1 [Example 9FNS-1, Perfluoroallylbenzene naphthalenesulfonic acid compound]

Compound | Amount of dissolution in CHA [g]
O=S(=O)(O)c1ccc2c(Oc3c(F)c(F)c(C(F)(F)F)c(F)c3F)cc(S(=O)(=O)O)cc2c1 [Example 7FNS-1, Perfluorotoluene naphthalenesulfonic acid compound] | >10
O=S(=O)(O)c1ccc2c(Oc3c(F)c(F)c(-c4c(F)c(F)c(Oc5cc(S(=O)(=O)O)cc6cc(S(=O)(=O)O)ccc56)c(F)c4F)c(F)c3F)cc(S(=O)(=O)O)cc2c1 [NSO-2, Naphthalenedisulfonic acid compound, reference compound] | 3.3
